Results from US10376520B2, “Methods for the treatment of cardiovascular disorders” (Galapagos NV, priority 2015, dated 2019).

Key:
Format in all cases: in vivo, human
[1] = test system: Japanese and Caucasian healthy subjects; experiment: Total cholesterol determination, Study 3 (healthy volunteers); conditions: for [Total cholesterol] % Mean % variation vs baseline 10 days: 200 mg q.d.; for [Total cholesterol] levels: Study 3
Description: Randomized, double-blind, placebo-controlled study for the assessment of safety, tolerability, pharmacokinetics, and pharmacodynamics, of multiple oral doses of Compound 1 (dosed as a [Compound 1:HCl:3H2O]) in Japanese and Caucasian healthy subjects.
Randomized, double-blind, placebo-controlled, single center, sequential design study.
Compound 1 (dosed as a [Compound 1:HCl:3H2O]) is administered for 10 days as oral film-coated tablet (25 and 100 mg and matching placebos). Placebo are provided as a matching tablet.
The study drug is ingested with 240 mL water after a standardized breakfast on Days 2-9. On PK days (Day 1 and Day 10) the study drug is administered in a fasted state (subjects will receive lunch 4 h after dosing on Day 1 and Day 10).
10 Japanese subjects (6 active, 4 placebo) and 10 Caucasian subjects (6 active, 4 placebo) will receive once daily an oral dose of 200 mg Compound 1 (dosed as a [Compound 1:HCl:3H2O]) or matching placebo as two tablets of 100 mg or matching placebo for 10 days. For practical reasons, these subjects may be split over separate groups, each group consisting of an equal number of Japanese and Caucasian Compound 1 (dosed as a [Compound 1:HCl:3H2O]) treated subjects and Japanese and Caucasian placebo subjects.
This method is based on the determination of Δ^4 cholestenone after enzymatic cleavage of the cholesterol ester by cholesterol esterase, conversion of cholesterol by cholesterol oxidase, and subsequent measurement by the Trinder reaction of the hydrogen peroxide formed (Allain et al., 1974).
Cholesterol esters are cleaved by the action of cholesterol esterase to yield free cholesterol and fatty acids. Cholesterol oxidase then catalyzes the oxidation of cholesterol to cholest-4-en-3-one and hydrogen peroxide. In the presence of peroxidase, the hydrogen peroxide formed effects the oxidative coupling of phenol and 4-aminophenazone to form a red quinone-imine dye. The color intensity of the dye formed is directly proportional to the cholesterol concentration. It is determined by measuring the increase in absorbance.
Human serum and plasma samples cholesterol determination was done on a Roche/Hitachi Cobas c 701/702 system which automatically calculate the analyte concentration of each sample.

RA patients [2] = experiment: Plasma ApoC-III concentration (ELISA), Study 4; conditions: for ApoC-III level, 4 weeks CFB: 4 weeks change from baseline
Description: (§1) Randomized double-blind, placebo-controlled add on study in subjects with active RA who have an inadequate response to MTX monotherapy, in combination with methotrexate, administered for 4 weeks in the treatment of subjects with active rheumatoid arthritis who have an inadequate response to methotrexate alone.
(§2) Compound 1 (dosed as a [Compound 1:HCl:3H2O]) capsules administered orally in 30 mg, 75 mg, 150 mg, or 300 mg doses per day for 4 weeks.
Plasma ApoC-II and ApoC-III concentrations are determined using commercial available ELISA kits from Abnova (9th Floor, No. 108, Jhouzih St., Neihu District. Taipei City, 114, Taiwan) according to manufacturer's instruction. apoC2: catalogue number KA0464, lot number used: 08871403. apoC3: catalogue number KA0465, lot number used: 02961525.

RA patients [3] = experiment: [HDL] cholesterol level (Selectra autoanalyzer), Study 4; conditions: for HDL level, 4 weeks CFB: 4 weeks change from baseline
Description: as §1, §2
Triglycerides, [HDL] cholesterol, and plasma cholesterol were measured on the Selectra autoanalyzer (Sopachem BV, 44-RI Straat 33, 4051 AP Ochten, The Netherlands). All assays were commercially available from DiaSys Diagnostic Systems GmbH, Alte Strasse 9, 65558 Holzheim, Germany.

RA patients [4] = experiment: Paraoxonase assay (PON1), Study 4; conditions: for PON1 level, 4 weeks CFB: 4 weeks change from baseline
Description: as §1, §2
Paraoxanases are involved, in particular PON1 have a role in preventing atherosclerosis.
The PON assay is performed according to published protocol by Mackness et al. (Mackness et al., 2003).

## O=C(Nc1nc2cccc(-c3ccc(CN4CCS(=O)(=O)CC4)cc3)n2n1)C1CC1 [Compound 1, cyclopropanecarboxylic acid {5-[4-(1,1-dioxo-thiomorpholin-4-ylmethyl)-phenyl]-[1,2,4]triazolo[1,5-a]pyridin-2yl}-amide]
[1]; Caucasian
  [Total cholesterol] % Mean % variation vs baseline 10 days: −2.6%
[1]; Japanese
  [Total cholesterol] % Mean % variation vs baseline 10 days: −0.4%
[1]; Caucasian 200 mg q.d. for 10 days, day 17
  [Total cholesterol] levels: 4.57 mmol/L
[1]; Caucasian 200 mg q.d., day 0
  [Total cholesterol] levels: 4.77 mmol/L
[1]; Caucasian 200 mg q.d., day 5
  [Total cholesterol] levels: 4.5 mmol/L
[1]; Caucasian 200 mg q.d., day 10
  [Total cholesterol] levels: 4.53 mmol/L
[1]; Japanese 200 mg q.d. for 10 days, day 17
  [Total cholesterol] levels: 4.52 mmol/L
[1]; Japanese 200 mg q.d., day 0
  [Total cholesterol] levels: 4.47 mmol/L
[1]; Japanese 200 mg q.d., day 5
  [Total cholesterol] levels: 4.18 mmol/L
[1]; Japanese 200 mg q.d., day 10
  [Total cholesterol] levels: 4.45 mmol/L
RA patients [2]; 30 mg q.d.
  ApoC-III level, 4 weeks CFB: 4.6%
  ApoC-III level, week 4: 78.6 ng/mL
RA patients [2]; 75 mg q.d.
  ApoC-III level, 4 weeks CFB: 17.6%
  ApoC-III level, week 4: 79.6 ng/mL
RA patients [2]; 150 mg q.d.
  ApoC-III level, 4 weeks CFB: 9.6%
  ApoC-III level, week 4: 82.7 ng/mL
RA patients [2]; 300 mg q.d.
  ApoC-III level, 4 weeks CFB: 27.9%
  ApoC-III level, week 4: 88.2 ng/mL
RA patients [3]; 30 mg q.d.
  HDL level, 4 weeks CFB: 6.7%
  HDL level, Baseline: 0.9 mM
  HDL level, week 4: 1 mM
RA patients [3]; 75 mg q.d.
  HDL level, 4 weeks CFB: 13.7%
  HDL level, Baseline: 1 mM
  HDL level, week 4: 1.1 mM
RA patients [3]; 150 mg q.d.
  HDL level, 4 weeks CFB: 10.7%
  HDL level, Baseline: 1 mM
  HDL level, week 4: 1.1 mM
RA patients [3]; 300 mg q.d.
  HDL level, 4 weeks CFB: 46.0%
  HDL level, Baseline: 1 mM
  HDL level, week 4: 1.4 mM
RA patients [4]; 30 mg q.d.
  PON1 level, 4 weeks CFB: 4.2%
RA patients [4]; 75 mg q.d.
  PON1 level, 4 weeks CFB: 11.2%
  PON1 level, Baseline: 69.3 ng/mL
  PON1 level, week 4: 73.7 ng/mL
RA patients [4]; 150 mg q.d.
  PON1 level, 4 weeks CFB: 43.4%
  PON1 level, Baseline: 52.5 ng/mL
  PON1 level, week 4: 70.6 ng/mL
RA patients [4]; 300 mg q.d.
  PON1 level, 4 weeks CFB: 31.0%
  PON1 level, week 4: 77.5 ng/mL
